Experimental data from PubChem BioAssay (NCI).
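The compound was tested at five concentrations on cells cultured in 96-well plates, with a 48-hour exposure period. Abbreviation: GI50, concentration required for 50% inhibition of growth. Definition used: TGI = concentration required for complete inhibition of growth.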

How the values were obtained:
Assay in all cases: NCI anticancer screen, dose series, 48 h
[1] = tested on: A549 NSCLC
[2] = tested on: K-562 leukemia
[3] = tested on: M14 melanoma
[4] = tested on: MALME-3M melanoma
[5] = tested on: MDA-MB-231 breast
[6] = tested on: NCI-H23 lung
[7] = tested on: OVCAR-5 ovarian
[8] = tested on: SNB-19 CNS
[9] = tested on: UACC-62 melanoma
[10] = tested on: T-47D breast

SMILES | GI50 [1] [µM] | TGI [1] [µM] | GI50 [2] [µM] | TGI [2] [µM] | GI50 [3] [µM] | TGI [3] [µM] | GI50 [4] [µM] | TGI [4] [µM] | GI50 [5] [µM] | TGI [5] [µM] | GI50 [6] [µM] | TGI [6] [µM] | GI50 [7] [µM] | TGI [7] [µM] | GI50 [8] [µM] | TGI [8] [µM] | GI50 [9] [µM] | TGI [9] [µM] | GI50 [10] [µM] | TGI [10] [µM]
Cn1c(COC(=O)NCCN2CCOCC2)nc2c(N3CCOCC3)nc(-c3ccccc3)nc21 | 1.39 | 3.73 | 0.523 | > 100 | 1.15 | 2.58 | 1.56 | 3.02 | 1.3 | 2.88 | 1.84 | 4.1 | 1.6 | 3.66 | 1.57 | 3.31 | 1.36 | 2.81 |  | 
CCC1(N2C(=O)c3c(F)c(F)c(F)c(F)c3C2=O)C(=O)NC(=O)N(c2ccccc2)C1=O (stereo unspecified) | 14 | 28.6 | 2.31 | 5.23 | 4.46 | 19.4 |  |  | 1.7 | 4.03 | 1.99 | 4.02 | 1.69 | 3.43 | 3.93 | 16.9 | 1.41 | 3.1 | 2.2 | 4.72
C/C(=N/Nc1ccc([N+](=O)[O-])cc1[N+](=O)[O-])C(CC(C(=O)Nc1ccccc1C)/C(C)=N\Nc1ccc([N+](=O)[O-])cc1[N+](=O)[O-])C(=O)Nc1ccccc1C (stereo unspecified) |  | 64.6 |  | > 100 |  | 46 |  | > 63.1 |  |  |  | 25.5 |  | 31 |  | 32 |  | 69.4 |  | 
O=C1c2ccccc2C(=O)c2c1ccc1c3ccccc3n(Cc3ccccc3)c21 |  | > 100 |  | > 100 |  | > 100 |  | > 100 |  |  |  |  |  | > 100 |  |  |  | > 100 |  | 
COc1ccc(S(=O)(=O)NCCNc2nccc(-c3c(-c4ccccc4)nc4sccn34)n2)cc1 | 1.61 | > 100 |  |  | 2.77 | > 100 | 8.77 | > 100 |  |  | 7.35 | > 100 | > 100 | > 100 | 8.78 | > 100 | 1.17 | > 100 | 3.17 | > 100
O=C1/C(=C/c2ccccc2)CN(C(=O)OCC(Cl)(Cl)Cl)C/C1=C\c1ccccc1 |  | 20.5 |  | 5.91 |  | 4.65 |  | 11.9 |  |  |  | 9.46 |  | 16.8 |  | 11.9 |  | 9.03 |  | 
CC[C@@]1(O)C(=O)OCc2c1cc1n(c2=O)Cc2cc3c(NC(C)=O)c(O)ccc3nc2-1 | 1.68 | > 100 | 3.47 | > 70.2 | 1.04 | 15.8 | 4.83 | 65.5 |  |  | 0.762 | 9.15 | 4.19 | > 100 | 0.917 | > 56.6 | 0.272 | 2.71 |  | 
CN1C(=O)C23CC4=CC=CC(O)C4N2C(=O)C1(CO)SS3 (stereo unspecified) |  | 0.318 |  |  |  | 0.295 |  | 0.449 |  | 0.373 |  | 0.348 |  | 0.149 |  | 0.55 |  | 0.424 |  | 0.339
CC(=O)N[C@@H]1CCC[C@H](C(=O)Nc2cc(-c3cnn4c3CC(C)(C)C4)c(Cl)cn2)C1 | < 0.0108 | > 100 | 0.0212 | > 100 |  |  | 0.0216 | 0.075 | < 0.0133 | > 100 | < 0.0116 | 0.181 | < 0.01 | > 100 | < 0.01 | > 100 | < 0.01 | 0.0549 | 0.0101 | 0.719
CCN1CC2(C)CC[C@@H](OC)C34[C@@H]2[C@H](OC(C)=O)C2(OCO[C@@]25C[C@H](OC)C2C[C@]3(O)[C@@H]5[C@H]2O)[C@H]14 |  | > 100 |  |  |  | > 100 |  | > 100 |  |  |  | > 100 |  | > 100 |  | > 100 |  |  |  | 
CCOc1cccnc1/C=N/NC(N)=S | 3.34 | > 100 | 3.72 | > 100 | 3.14 | 15 |  |  | 3.27 | > 100 | 5.05 | > 100 | 6.37 | > 100 | 4.43 | > 100 |  |  | 4.85 | > 100
COc1cc(/C=C\c2cccnc2Nc2ccccc2)cc(OC)c1OC | 4.21 | > 100 |  |  | 8.99 | 38.1 | 15.3 | 87.4 | 12.6 | > 100 | 10.2 | > 100 | 16.3 | > 100 | 6.8 | > 100 | 4.96 | 25.4 | 5.3 | 47.6
COc1cc(C(=O)/C=C/c2c(C(F)(F)F)nc3sccn23)cc(OC)c1OC | 3.44 | 18 | 1.74 | 6.27 |  |  | 1.59 | 3.67 | 2.92 | 9.84 | 1.72 | 3.89 |  |  | 2.67 | 10.2 | 1.52 | 2.95 | 2.12 | 5.76
Cc1cccc(CC(C)(C)C)c1NC(=O)C(=O)C(C(=O)c1ccc2ccccc2c1)C1OC(=O)c2ccccc21 (stereo unspecified) |  | 40.9 |  |  |  | > 100 |  | 27.4 |  |  |  | 19.2 |  | 34.7 |  | 46.9 |  | 21.7 |  | 
O=C(OCc1nc2ccc(Br)cc2c(=O)n1-c1ccccc1)c1ccccc1O |  | > 100 |  | > 100 |  | > 100 |  | > 100 |  |  |  | > 100 |  | > 100 |  |  |  | > 100 |  | 
O=c1[nH]c(-c2ccccn2)nc2sc3c(c12)CCCCCC3 | 2.57 | > 100 | 0.99 | > 100 | 4.09 | > 100 |  |  | 8.76 | > 100 | 11 | > 100 | 90.9 | > 100 |  |  | 5.51 | > 100 | 5.54 | > 100
CCC1NCC(=O)c2c1[nH]c1ccccc21 (stereo unspecified) |  | > 100 |  | > 100 |  | > 100 |  | > 100 |  |  |  | > 100 |  | > 100 |  | > 100 |  | > 100 |  | 
